Experimental data taken from PubChem BioAssay AID1259407 (Chemical Carcinogenesis Research Information System (CCRIS), 2018).
Active and inactive are the calls of the source. How the calls were made is not given here.

System: CCRIS mutagenicity, Ames/micronucleus/aberration tests
Experiment: CCRIS mutagenicity studies
[1] = Test System: AMES SALMONELLA TYPHIMURIUM, Strain/Indicator: TA98, Metabolic Activation: NONE, Method: STANDARD PLATE
[2] = Test System: AMES SALMONELLA TYPHIMURIUM, Strain/Indicator: TA98, Metabolic Activation: RAT, LIVER, S-9, AROCLOR 1254, Method: STANDARD PLATE
[3] = Test System: AMES SALMONELLA TYPHIMURIUM, Strain/Indicator: TA100, Metabolic Activation: NONE, Method: STANDARD PLATE
[4] = Test System: AMES SALMONELLA TYPHIMURIUM, Strain/Indicator: TA100, Metabolic Activation: RAT, LIVER, S-9, AROCLOR 1254, Method: STANDARD PLATE
[5] = Test System: AMES SALMONELLA TYPHIMURIUM, Strain/Indicator: TA1535, Metabolic Activation: NONE, Method: STANDARD PLATE
[6] = Test System: AMES SALMONELLA TYPHIMURIUM, Strain/Indicator: TA1535, Metabolic Activation: RAT, LIVER, S-9, AROCLOR 1254, Method: STANDARD PLATE
[7] = Test System: AMES SALMONELLA TYPHIMURIUM, Strain/Indicator: TA1538, Metabolic Activation: NONE, Method: STANDARD PLATE
[8] = Test System: AMES SALMONELLA TYPHIMURIUM, Strain/Indicator: TA1538, Metabolic Activation: RAT, LIVER, S-9, AROCLOR 1254, Method: STANDARD PLATE
[9] = Test System: AMES SALMONELLA TYPHIMURIUM, Strain/Indicator: TA98, Metabolic Activation: NONE, Method: PREINCUBATION
[10] = Test System: AMES SALMONELLA TYPHIMURIUM, Strain/Indicator: TA100, Metabolic Activation: NONE, Method: PREINCUBATION
[11] = Test System: AMES SALMONELLA TYPHIMURIUM, Strain/Indicator: TA1535, Metabolic Activation: NONE, Method: PREINCUBATION

Structure (SMILES): CCCC[C@@H](C)[C@@H](OC(=O)C[C@@H](CC(=O)O)C(=O)O)[C@H](C[C@@H](C)C[C@H](O)CCCC[C@@H](O)C[C@H](O)[C@H](C)N)OC(=O)C[C@@H](CC(=O)O)C(=O)O
- mutagenic call (Test System: AMES SALMONELLA TYPHIMURIUM, Strain/Indicator: TA97A, Metabolic Activation: NONE, Method: STANDARD PLATE): inactive; negative
- mutagenic call (Test System: AMES SALMONELLA TYPHIMURIUM, Strain/Indicator: TA97A, Metabolic Activation: RAT, LIVER, S-9, AROCLOR 1254, Method: STANDARD PLATE): inactive; negative
- mutagenic call [1]: inactive; negative
- mutagenic call (Test System: AMES SALMONELLA TYPHIMURIUM, Strain/Indicator: TA98, Metabolic Activation: RAT LIVER S-9, Method: STANDARD PLATE): inactive; negative
- mutagenic call [2]: inactive; negative
- mutagenic call [3]: inactive; negative
- mutagenic call (Test System: AMES SALMONELLA TYPHIMURIUM, Strain/Indicator: TA100, Metabolic Activation: RAT LIVER S-9, Method: STANDARD PLATE): inactive; negative
- mutagenic call [4]: inactive; negative
- mutagenic call (Test System: AMES SALMONELLA TYPHIMURIUM, Strain/Indicator: TA102, Metabolic Activation: NONE, Method: STANDARD PLATE): inactive; negative
- mutagenic call (Test System: AMES SALMONELLA TYPHIMURIUM, Strain/Indicator: TA102, Metabolic Activation: RAT LIVER S-9, Method: STANDARD PLATE): inactive; negative
- mutagenic call (Test System: AMES SALMONELLA TYPHIMURIUM, Strain/Indicator: TA102, Metabolic Activation: RAT, LIVER, S-9, AROCLOR 1254, Method: STANDARD PLATE): inactive; negative

Structure (SMILES): O=[Si]=O
- mutagenic call [1]: inactive; negative
- mutagenic call [2]: inactive; negative
- mutagenic call [3]: inactive; negative
- mutagenic call [4]: inactive; negative
- mutagenic call [5]: inactive; negative
- mutagenic call [6]: inactive; negative
- mutagenic call (Test System: AMES SALMONELLA TYPHIMURIUM, Strain/Indicator: TA1537, Metabolic Activation: NONE, Method: STANDARD PLATE): inactive; negative
- mutagenic call (Test System: AMES SALMONELLA TYPHIMURIUM, Strain/Indicator: TA1537, Metabolic Activation: RAT, LIVER, S-9, AROCLOR 1254, Method: STANDARD PLATE): inactive; negative
- mutagenic call [7]: inactive; negative
- mutagenic call [8]: inactive; negative
- mutagenic call (Test System: E. COLI, Strain/Indicator: WP2, Metabolic Activation: NONE, Method: STANDARD PLATE): inactive; negative
- mutagenic call (Test System: E. COLI, Strain/Indicator: WP2, Metabolic Activation: RAT, LIVER, S-9, AROCLOR 1254, Method: STANDARD PLATE): inactive; negative
- mutagenic call (Test System: HUMAN-HAMSTER HYBRID AL CELLS, Strain/Indicator: AL CELLS (HPRT), Metabolic Activation: NONE, Method: PREINCUBATION): active; positive

Structure (SMILES): CCCCCC(O)CC(=O)CCC1CCC(O)C(OC)C1 (stereo unspecified)
- mutagenic call [1]: inactive; negative
- mutagenic call [2]: inactive; negative
- mutagenic call [3]: inactive; negative
- mutagenic call [4]: active; positive
- mutagenic call [5]: inactive; negative
- mutagenic call [6]: active; positive
- mutagenic call [7]: inactive; negative
- mutagenic call [8]: inactive; negative

Structure (SMILES): C=CC(=O)OCCN(C)C
- mutagenic call (Test System: AMES SALMONELLA TYPHIMURIUM, Strain/Indicator: TA98, Metabolic Activation: HAMSTER, LIVER, S-9, AROCLOR 1254 (10%), Method: PREINCUBATION): inactive; negative
- mutagenic call [9]: inactive; negative
- mutagenic call (Test System: AMES SALMONELLA TYPHIMURIUM, Strain/Indicator: TA98, Metabolic Activation: RAT, LIVER, S-9, AROCLOR 1254 (10%), Method: PREINCUBATION): inactive; negative
- mutagenic call (Test System: AMES SALMONELLA TYPHIMURIUM, Strain/Indicator: TA100, Metabolic Activation: HAMSTER, LIVER, S-9, AROCLOR 1254 (10%), Method: PREINCUBATION): inactive; negative
- mutagenic call [10]: inactive; negative
- mutagenic call (Test System: AMES SALMONELLA TYPHIMURIUM, Strain/Indicator: TA100, Metabolic Activation: RAT, LIVER, S-9, AROCLOR 1254 (10%), Method: PREINCUBATION): inactive; negative
- mutagenic call (Test System: AMES SALMONELLA TYPHIMURIUM, Strain/Indicator: TA1535, Metabolic Activation: HAMSTER, LIVER, S-9, AROCLOR 1254 (10%), Method: PREINCUBATION): inactive; negative
- mutagenic call [11]: inactive; negative
- mutagenic call (Test System: AMES SALMONELLA TYPHIMURIUM, Strain/Indicator: TA1535, Metabolic Activation: RAT, LIVER, S-9, AROCLOR 1254 (10%), Method: PREINCUBATION): inactive; negative
- mutagenic call (Test System: AMES SALMONELLA TYPHIMURIUM, Strain/Indicator: TA1537, Metabolic Activation: HAMSTER, LIVER, S-9, AROCLOR 1254 (10%), Method: PREINCUBATION): inactive; negative
- mutagenic call (Test System: AMES SALMONELLA TYPHIMURIUM, Strain/Indicator: TA1537, Metabolic Activation: NONE, Method: PREINCUBATION): inactive; negative
- mutagenic call (Test System: AMES SALMONELLA TYPHIMURIUM, Strain/Indicator: TA1537, Metabolic Activation: RAT, LIVER, S-9, AROCLOR 1254 (10%), Method: PREINCUBATION): inactive; negative

Structure (SMILES): c1scc2c1-c1cscc1C1NC21 (stereo unspecified)
- mutagenic call [1]: active; positive
- mutagenic call [3]: active; positive

Structure (SMILES): CCC(=O)C(=O)CC
- mutagenic call [3]: active; positive

Structure (SMILES): Cc1cccc(C)c1NO
- mutagenic call [10]: active; positive
- mutagenic call (Test System: AMES SALMONELLA TYPHIMURIUM, Strain/Indicator: TA100, Metabolic Activation: RAT, LIVER, S-9, PCB, Method: PREINCUBATION): active; positive

Structure (SMILES): O=C(CBr)c1oc([N+](=O)[O-])c(Cl)c1Cl
- mutagenic call [1]: active; positive
- mutagenic call (Test System: AMES SALMONELLA TYPHIMURIUM, Strain/Indicator: TA100 (NR), Metabolic Activation: NONE, Method: STANDARD PLATE): active; positive
- mutagenic call [3]: active; positive
- mutagenic call (Test System: AMES SALMONELLA TYPHIMURIUM, Strain/Indicator: TA100, Metabolic Activation: NONE, Method: STANDARD PLATE (ANAEROBIC INCUBATION)): active; positive

Structure (SMILES): Cc1ccccc1C(N)=O
- mutagenic call (Test System: AMES SALMONELLA TYPHIMURIUM, Strain/Indicator: TA97, Metabolic Activation: HAMSTER, LIVER, S-9, AROCLOR 1254 (10 OR 30%), Method: PREINCUBATION): inactive; negative
- mutagenic call (Test System: AMES SALMONELLA TYPHIMURIUM, Strain/Indicator: TA97, Metabolic Activation: NONE, Method: PREINCUBATION): inactive; negative
- mutagenic call (Test System: AMES SALMONELLA TYPHIMURIUM, Strain/Indicator: TA97, Metabolic Activation: RAT, LIVER, S-9, AROCLOR 1254 (10 OR 30%), Method: PREINCUBATION): inactive; negative
- mutagenic call (Test System: AMES SALMONELLA TYPHIMURIUM, Strain/Indicator: TA98, Metabolic Activation: HAMSTER, LIVER, S-9, AROCLOR 1254 (10 OR 30%), Method: PREINCUBATION): inactive; negative
- mutagenic call [9]: inactive; negative
- mutagenic call (Test System: AMES SALMONELLA TYPHIMURIUM, Strain/Indicator: TA98, Metabolic Activation: RAT, LIVER, S-9, AROCLOR 1254 (10 OR 30%), Method: PREINCUBATION): inactive; negative
- mutagenic call (Test System: AMES SALMONELLA TYPHIMURIUM, Strain/Indicator: TA100, Metabolic Activation: HAMSTER, LIVER, S-9, AROCLOR 1254 (10 OR 30%), Method: PREINCUBATION): inactive; negative
- mutagenic call [10]: inactive; negative
- mutagenic call (Test System: AMES SALMONELLA TYPHIMURIUM, Strain/Indicator: TA100, Metabolic Activation: RAT, LIVER, S-9, AROCLOR 1254 (10 OR 30%), Method: PREINCUBATION): inactive; negative
- mutagenic call (Test System: AMES SALMONELLA TYPHIMURIUM, Strain/Indicator: TA1535, Metabolic Activation: HAMSTER, LIVER, S-9, AROCLOR 1254 (10 OR 30%), Method: PREINCUBATION): inactive; negative
- mutagenic call [11]: inactive; negative
- mutagenic call (Test System: AMES SALMONELLA TYPHIMURIUM, Strain/Indicator: TA1535, Metabolic Activation: RAT, LIVER, S-9, AROCLOR 1254 (10 OR 30%), Method: PREINCUBATION): inactive; negative

Structure (SMILES): O=NN(c1ccc([N+](=O)[O-])cc1)C1OC[C@@H](O)[C@@H](O)[C@H]1O (stereo partly specified)
- mutagenic call [3]: active; positive
